From patent US5688821A, “Unsaturated fatty acyl derivatives of 2-aminothiazoleacetic acid and their salts as inhibitors of phospholipase A2 derived from human sources” (American Home Products Corporation, priority 1996, dated 1997) come the findings set out here.

Where a name gives a salt, the structure may show the parent alone. Read-outs that look alike come from different tables or passages of the source.

One test deals with T1, Human Synovial PLA2 (Homo sapiens, UniProt P14555).
T1 construct: Purified human synovial fluid; from tissue; host or cells: human synovial fluid (purified)
T1 sequence (P14555 21-144): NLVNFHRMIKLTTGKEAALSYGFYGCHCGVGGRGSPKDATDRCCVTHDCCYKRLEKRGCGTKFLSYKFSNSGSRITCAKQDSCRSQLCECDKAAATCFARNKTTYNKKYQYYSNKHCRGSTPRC
Description: Inhibition of PLA2 derived from human synovial fluid (HSF), arachidonic acid release from 3H-AA E. coli substrate. The following applies: for inhibition at 50 µM: Drug Concentration 50 μM; for inhibition at 10 µM / % Inhibition HSF: Drug Concentration 10 μM, Example 8: average of two runs; for % Inhibition HSF: 10 µM. Type of test: biochemical. How it is done:
(§1) The compounds of the invention are tested in an in vitro isolated phospholipase A2 assay to determine the ability of the test compounds to inhibit the release of arachidonic acid from an arachidonic acid-containing substrate by the action of phospholipase A enzyme from two human sources.
(§2) 1. INHIBITION OF PLA2 DERIVED FROM HUMAN PLATELETS AND HUMAN SYNOVIAL FLUID
(§3) This assay is carried out as follows:
(§4) Into a 15 mL polypropylene tube are added the following: […]
(§5) *pre-incubate at room temperature 30 min prior to substrate addition.
(§6) ^1. Prepared by adding 2 mL deionized and distilled water to 2 mL ^3 H-arachidonate labeled E. coli (lower count), to which is added 1 mL of ^3 H-arachidonate labeled E. coli (higher count) to yield a total of […] substrate (containing 1000 nmoles phospholipid, PL).
(§7) ^2 Stock 0.1M CaCl2 required for enzyme activity.
(§8) ^3 Stock 0.5M Trisma-Base. Stock 0.5M Trisma-HCl. Adjust pH to 7.5 (optimum for enzyme).
(§9) ^4 Deionized and distilled water.
(§10) ^5 Stock 10 mM prepared in dimethyl sulfoxide. Make 1:2 dilution with dimethyl sulfoxide and add 1 μL to 100 μL assay tube.
^6 Two human PLA2 enzymes are used: […]
(b) Purified human synovial fluid.
(§11) Incubate the […] reaction mixture for 10 minutes at 37° C. in a shaking water bath. The reaction is terminated by the addition of 2 mL tetrahydrofuran, followed by vortexing. NH2 columns ([…]--Analytichem International) are conditioned with 0.5 mL tetrahydrofuran followed by 0.5 mL tetrahydrofuran/water (2 mL:0.1 mL, v/v).
(§12) The sample is loaded onto the columns and slowly dram through them. The hydrolyzed arachidonic acid retained in the columns is eluted therefrom with 1 mL tetrahydrofuran/glacial acetic acid (2%). The arachidonic acid is transferred to scintillation vials and quantitated by β-counting analysis. A "total counts" sample is prepared by pipetting 25 μl, ^3 H-arachidonate E. coli directly into a scintillation vial to which is added 1 mL tetrahydrofuran. 10 mL aquasol (scintillation cocktail) is added to all samples.

The next test deals with T2, Human Platelet PLA2 (Homo sapiens, UniProt P14555).
T2 construct: semi-purified human platelet acid extract PLA2; from tissue; host or cells: human platelets (semi-purified acid extract)
T2 sequence (P14555 21-144): T1 sequence (P14555 21-144)
Briefly: Inhibition of PLA2 derived from human platelets (HP), arachidonic acid release from 3H-AA E. coli substrate. The class given is biochemical. The conditions noted are these: for inhibition at 50 µM: Drug Concentration 50 μM; for inhibition at 10 µM / % Inhibition HP: Drug Concentration 10 μM, Example 8: average of two runs; for % Inhibition HP: 10 µM. How it is done:
as §1, §2, §3, §4, §5, §6, §7, §8, §9, §10
^6 Two human PLA2 enzymes are used:
(a) semi-purified human platelet acid extract PLA2 (in 10 mM sodium acetate buffer, pH 4.5). Remove protein precipitate by centrifugation at about 2200 rpm for 10 minutes. […]
as §11, §12

The subject of test [1] is TPA-induced ear edema in mouse ears. Description: TPA-induced dermal inflammation in mouse ears. The class given is in vivo, mouse (female Swiss Webster). The conditions noted are these: Topical, 30 min after TPA, measured 4 h after TPA, * p ≤0.05. How it is done:
2. TPA-induced dermal inflammation in mouse ears
Female Swiss Webster mice (Buckshire; 8 weeks old) were divided into groups of six. Tetradecanoylphorbol acetate CrPA) was dissolved in acetone at concentrations of 50 mg/ml and 200 μg/ml, respectively. Each mouse received 4 μg/ear of TPA on the right ear. These suboptimal doses of phlogistics were applied by an automatic pipette in 10 μl volumes to both the inner and outer surfaces of the ear. The left ear (control) received acetone or vehicle. […] Drags were given 30 min. after treatment (+30 min) with TPA. Edema measurements were taken with an Oditest calipers. The thickness of the right and left ears were usually measured in traits of 0.01 mm 4 h after TPA application. Ear edema was calculated by subtracting the thickness of the left ear (vehicle control) from right ear (treated ear).

The test system of test [2] is paw edema induced by the exogenous administration of PLA2. Description: Murine paw edema assay (edema induced by exogenous PLA2). Type of test: in vivo, mouse (male CD-1). The following applies: for % change paw edema: 30 mg/kg i.p., * p ≤0.05; for % change paw edema (in words): dose and time not given.
Where [3] appears, read: test compounds, value in parentheses, Table 1, read-out: (IC50) HSF.
Setting [4] is: test compounds, value in parentheses, Table 1, read-out: (IC50) HP.

Broadly, the IC50 is the concentration that gives 50% inhibition. As to `CCCCC/C=C\C/C=C\C/C=C\C/C=C\CCCC(=O)O` [Arachidonic Acid, reference compound], the IC50 at Human Synovial PLA2 (standard drugs, read-out: IC50 Human Synovial PLA2 (standard drugs)) stood at 3.2 µM; at Human Platelet PLA2 (standard drugs, read-out: IC50 Human Platelet PLA2 (standard drugs)), 8.6 µM.
As a reminder, the inhibition is the percentage by which the read-out fell short of the control. Regarding `CCCCCCCC/C=C\CCCCCCCC(=O)Nc1nc(CC(=O)O)cs1` [Example 1, 2[((Z)-1-Oxo-9-octadecenyl)amino]-4-thiazoleacetic acid], the inhibition at 50 µM was 96% against Human Synovial PLA2 and 57.5% against Human Platelet PLA2. For the same compound, the 50% inhibitory concentration (IC50) on Human Synovial PLA2 (setting [3]) was 1.7 µM; at Human Platelet PLA2 (setting [4]), 27.9 µM.
For `CCCCCCCC/C=C\CCCCCCCC(=O)Nc1nc(CC(=O)O)cs1` [Example 2, 2-[((Z)-1-Oxo-9-octadecenyl)amino]-4-thizaoleacetic acid, tromethamine (2-amino-2-hydroxymethyl)-1,3-propanediol) salt], the figures for the inhibition at 10 µM against Human Synovial PLA2 and against Human Platelet PLA2 were 25.9% and 36%, respectively.
With `CCCCCCCC/C=C/CCCCCCCC(=O)Nc1nc(CC(=O)O)cs1` [Example 3, 2-[((E)-1-Oxo-9-octadecenyl)amino]-4-thiazoleacetic acid], the inhibition at 50 µM was 81.7% at Human Synovial PLA2 and 70% against Human Platelet PLA2. Besides, the IC50 on Human Synovial PLA2 (setting [3]) was 2.1 µM; on Human Platelet PLA2 (setting [4]), 25.7 µM. The “% Change Edema” value in test [1] (100 mg/ear (so in the source)) is on record as -20%. For the same compound, the “% change paw edema” value in test [2] (10 min after PLA2) is recorded as -33%; in test [2] (30 min after PLA2), -43%.
On to `CCCCCCCCC#CCCCCCCCC(=O)Nc1nc(CC(=O)O)cs1` [Example 4, 2-[(1-Oxo-9-octadecynyl)amino]-4-thiazoleacetic acid], for which the “% Inhibition HSF” value at Human Synovial PLA2 is listed as 42.5%. Also, at Human Platelet PLA2, the “% Inhibition HP” value is reported as 8.9%.
The matching figures for `CCCCCCCCC#CCCCCCCCC(=O)Nc1nc(CC(=O)O)cs1` [Example 5, 2-[(1-Oxo-9-octadecynyl)amino]-4-thiazoleacetic acid, tromethamine salt]: 66% and 26%.
Consider `CCCCC/C=C/C/C=C/CCCCCCCC(=O)Nc1nc(CC(=O)O)cs1` [Example 6], for which the figures for the inhibition at 10 µM against Human Synovial PLA2 and against Human Platelet PLA2 were 84.8% and 74.6%, respectively.
The matching figures for `CC/C=C\C/C=C\C/C=C\CCCCCCCC(=O)Nc1nc(CC(=O)O)cs1` [Example 7, 2-[((Z,Z,Z)-1-Oxo-9,12,15-octadecatrienyl)amino]-4-thiazole-acetic acid]: 38.5% and 0.5%.
Turning to `CCCC/C=C\CCCCCCCC(=O)Nc1nc(CC(=O)O)cs1` [Example 8, 2-[((Z)-1-Oxo-9-tetradecenyl)amino]-4-thiazoleacetic Acid], the “% Inhibition HSF” value on Human Synovial PLA2 worked out at 2%. For the same compound, at 10 µM the inhibition on Human Platelet PLA2 was 65.6%.
For the compound `CCCC/C=C\CCCCCCCC(=O)Nc1nc(CC(=O)O)cs1` [Example 9, 2[((Z)-1-Oxo-9-tetradecenyl)amino]-4-thiazoleacetic acid, tromethamine salt], the “% Inhibition HSF” value at Human Synovial PLA2 is recorded as 26.9%. On Human Platelet PLA2, the “% Inhibition HP” value worked out at 74%.
In the case of `CCCCC/C=C\C/C=C\CCCCCCCCCC(=O)Nc1nc(CC(=O)O)cs1` [Example 10, 2[((Z,Z)-1-Oxo-11,14-eicosadienyl)amino]-4-thiazoleacetic acid], the inhibition at 50 µM is 86.3% against Human Synovial PLA2 and 82.7% against Human Platelet PLA2.
As to `CC1=C(CC/C(C)=C/CC/C(C)=C/CCC2=CC(=O)OC2O)C(C)(C)CCC1` (centres unmarked) [Luffariellolide, reference compound], the “% change paw edema (in words)” value in test [2] is given as “Inactive”.
Consider `c1ccc2nc(COc3cccc4ccccc34)ccc2c1` [WY-47288, reference compound], for which, in test [1] (1 mg/ear), the “% Change Edema” value is -40%. For the same compound, in test [2], the “% change paw edema (in words)” value is reported as “Inactive”.
